PMC11070402, “New antiproliferative 3-substituted oxindoles inhibiting EGFR/VEGFR-2 and tubulin polymerization” (Molecular Diversity, 2023)
Values joined by “and” are separate entries in the source; they are usually repeats but may differ in a detail not shown here. Equal entries are not always repeated. Where two headings read alike, the source gives them in different places.

Assays:
[1] = test system: MCF-7 (human breast cancer); assay: Cytotoxicity versus MCF-7 cell line (MTT assay); settings: MCF7, read-out: MCF-7 (IC50 ± SD, uM)
[2] = test system: Human Skin Fibroblasts (HSF) cells; assay: Margin of safety: cytotoxicity on human skin fibroblasts (SRB assay); type: cell-based
Method: Cell viability was assessed via SRB assay. Aliquots of 100 µl cell suspension (5 × 10^3 cells) were in 96-well plates and incubated in a complete media for 24 h. […] After 72 h of drug exposure, cells were fixed by replacing media with 150 µl of 10% TCA and incubated at 4 °C for 1 h. The TCA solution was removed, and the cells were washed 5 times with distilled water. Aliquots of […] SRB solution (0.4 w/v) were added and incubated in a dark place at room temperature for 10 min. Plates were washed 3 times with 1% acetic acid and allowed to air-dry overnight. Then, 150 µl of TRIS (10 mM) was added to dissolve the protein-bound SRB stain; the absorbance was measured at 540 nm using a BMG LAB TECH®-FLUO star Omega microplate reader (Ortenberg, Germany).

[3] = test system: tubulin; parameters: method as in PMID 34832895; settings: read-out: IC50 tubulin assembly; cited from earlier work
[4] = test system: tubulin; assay: Tubulin polymerization inhibition assay; type: biochemical
[5] = test system: tubulin; parameters: method as in PMID 33038796; settings: read-out: tubulin polymerization IC50; cited from earlier work
[6] = test system: NCI/ADR-RES (ovarian cancer cell line); assay: NCI one-dose assay, NCI/ADR-RES; type: cell-based; settings: Homo sapiens; NCI/ADR-RES; 10 µM single dose, 48 h incubation; read-out: cell growth inhibition % (GI %)
Method: (§1) All novel scaffolds 6a–j were carefully selected by the National Cancer Institute (NCI), Bethesda, USA, to elucidate their cytotoxic activity versus 60 human cancer cell lines at 10 µM as a single-dose concentration after a 48 h incubation period.
(§2) National Cancer Institution selected all the synthesized 6a–j (NCI), Bethesda, USA, for in vitro one-dose antitumor assay. The methodology protocol for the NCI anticancer screening was reported in detail elsewhere (http://www.dtp.nci.nih.gov). The anticancer assay was performed in full NCI 60 cell lines extracted from nine tumor cell lines, including leukemia, melanoma, lung, colon, CNS, ovarian, renal, prostate, and breast cancer cell lines.

[7] = test system: MOLT-4; assay: NCI one-dose assay, MOLT-4; type: cell-based; settings: Homo sapiens; MOLT-4 (Leukemia), 10 uM single dose; read-out: Growth inhibition %
Method: as §1, §2

[8] = test system: T-47D; assay: NCI one-dose assay, T-47D; type: cell-based; settings: Homo sapiens, T47D; T-47D (Breast Cancer), 10 uM single dose; read-out: Growth inhibition %
Method: as §1, §2

[9] = test system: HOP-92 (non-small cell lung cancer cell line); assay: NCI one-dose assay, HOP-92; type: cell-based; settings: Homo sapiens; HOP-92 (Non-Small Cell Lung Cancer), 10 uM single dose; read-out: Growth inhibition %
Method: as §1, §2

[10] = test system: MCF-7; assay: NCI one-dose assay, MCF-7; type: cell-based, human; settings: Homo sapiens, MCF7, MCF7 (Breast Cancer), 10 uM single dose; read-out: Growth inhibition %
Method: as §1, §2

[11] = test system: UO-31; assay: NCI one-dose assay, UO-31; type: cell-based; settings: Homo sapiens; UO-31 (Renal Cancer), 10 uM single dose; read-out: Growth inhibition %
Method: as §1, §2

[12] = test system: SNB-75 cells (CNS cancer cell line); assay: NCI one-dose assay, SNB-75; type: cell-based; settings: Homo sapiens; SNB-75 (CNS Cancer), 10 uM single dose; read-out: Growth inhibition %
Method: as §1, §2

[13] = test system: K-562; assay: NCI one-dose assay, K-562; type: cell-based; settings: Homo sapiens, K562; K-562 (Leukemia), 10 uM single dose; read-out: Growth inhibition %
Method: as §1, §2

[14] = test system: SR; assay: NCI one-dose assay, SR; type: cell-based; settings: Homo sapiens; SR (Leukemia), 10 uM single dose; read-out: Growth inhibition %
Method: as §1, §2

[15] = test system: SK-MEL-5; assay: NCI one-dose assay, SK-MEL-5; type: cell-based; settings: Homo sapiens; SK-MEL-5 (Melanoma), 10 uM single dose; read-out: Growth inhibition %
Method: as §1, §2

[16] = test system: 60 human cancer cell lines; assay: NCI one-dose assay against sixty NCI cancer cell lines; type: cell-based
Method: as §1, §2

[17] = test system: EGFR (L858R); parameters: method as in PMID 29758406; settings: read-out: IC50 against EGFR (L858R); cited from earlier work
[18] = test system: EGFR (T790M); parameters: method as in PMID 29758406; settings: read-out: IC50 against EGFR (T790M); cited from earlier work
[19] = test system: c-MET; parameters: method as in PMID 29758406; settings: read-out: IC50 against c-MET; cited from earlier work
[20] = test system: VEGFR-2; settings: cited from earlier work
[21] = test system: EGFR^L858R/T790M; parameters: method as in PMID 34798457; settings: cited from earlier work
[22] = target: EGFR^WT kinase; parameters: method as in PMID 34798457; settings: cited from earlier work
[23] = target: T1, EGFR (Homo sapiens, UniProt P00533); parameters: method as in PMID 34832895; settings: cited from earlier work
T1 construct: purchased
T1 sequence (P00533 25-1210): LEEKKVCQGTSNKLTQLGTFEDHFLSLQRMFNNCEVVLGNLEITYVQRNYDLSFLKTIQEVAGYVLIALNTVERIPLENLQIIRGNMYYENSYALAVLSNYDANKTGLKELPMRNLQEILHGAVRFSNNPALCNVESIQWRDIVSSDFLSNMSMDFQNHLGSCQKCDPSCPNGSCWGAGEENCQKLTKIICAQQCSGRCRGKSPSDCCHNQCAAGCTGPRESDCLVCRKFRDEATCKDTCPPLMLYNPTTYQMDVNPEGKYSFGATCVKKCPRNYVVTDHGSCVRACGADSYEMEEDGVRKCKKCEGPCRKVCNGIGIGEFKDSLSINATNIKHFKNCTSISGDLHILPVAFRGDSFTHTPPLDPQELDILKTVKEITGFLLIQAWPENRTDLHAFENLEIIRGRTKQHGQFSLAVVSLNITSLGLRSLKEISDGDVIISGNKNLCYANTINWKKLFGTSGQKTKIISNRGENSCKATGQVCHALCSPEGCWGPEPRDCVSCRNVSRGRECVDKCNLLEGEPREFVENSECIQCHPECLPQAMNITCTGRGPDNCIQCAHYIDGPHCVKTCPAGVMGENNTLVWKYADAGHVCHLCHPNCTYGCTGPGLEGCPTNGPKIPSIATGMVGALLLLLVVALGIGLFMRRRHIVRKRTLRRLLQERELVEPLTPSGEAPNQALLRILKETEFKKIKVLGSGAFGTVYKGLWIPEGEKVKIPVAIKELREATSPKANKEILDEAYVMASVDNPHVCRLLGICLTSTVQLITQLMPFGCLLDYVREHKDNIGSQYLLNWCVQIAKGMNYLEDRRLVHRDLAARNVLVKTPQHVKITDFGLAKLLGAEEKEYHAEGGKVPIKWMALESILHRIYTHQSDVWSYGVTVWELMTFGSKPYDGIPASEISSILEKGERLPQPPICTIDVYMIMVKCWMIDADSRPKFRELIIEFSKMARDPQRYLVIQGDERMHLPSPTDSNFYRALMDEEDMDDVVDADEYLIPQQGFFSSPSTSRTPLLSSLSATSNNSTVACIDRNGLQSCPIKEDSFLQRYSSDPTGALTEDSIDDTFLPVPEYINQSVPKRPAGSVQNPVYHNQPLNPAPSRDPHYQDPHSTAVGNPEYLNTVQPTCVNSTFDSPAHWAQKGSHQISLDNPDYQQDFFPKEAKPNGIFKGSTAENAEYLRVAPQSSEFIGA

[24] = target: colchicine-binding site; parameters: method as in PMID 34649064; settings: read-out: competitive inhibition at the colchicine-binding site IC50; cited from earlier work
[25] = test system: tubulin; parameters: method as in doi:10.1016/j.molstruc.2022.132345; settings: read-out: anti-tubulin activity IC50; cited from earlier work

Structure (SMILES): O=c1[nH]cc(F)c(=O)[nH]1 [5FU, 5-fluorouracil, reference compound]
- IC50 [1]: 2.02 ± 0.17 µM
- IC50 ([2]; HSF, Human Skin Fibroblasts, SRB assay, 72 h exposure, read-out: HSF (IC50 ± SD)): 5450 ± 20 nM
- SI (selectivity index) ([2]; SI = IC50 for HSF / IC50 for MCF-7 cells): 2.70

Structure (SMILES): COc1ccc(/C=C\c2cc(OC)c(OC)c(OC)c2)cc1O [CA-4, combretastatin A4]
- IC50 [5]: 2500 nM

Structure (SMILES): COc1ccc(C(=O)COc2ccc(C=C3C(=O)Nc4ccccc43)cc2)cc1 [Compound 6h, 3-{4-[2-(4-Methoxyphenyl)-2-oxoethoxy]benzylidene}indolin-2-one]
- inhibition at 10 µM [6]: 43.7%
- inhibition at 10 µM [7]: 34.3%
- inhibition at 10 µM [8]: 26.4%
- inhibition at 10 µM [9]: 11.7%
- inhibition at 10 µM [10]: 41.3%
- inhibition at 10 µM [11]: 37.5%
- inhibition at 10 µM [12]: 23.6%
- inhibition at 10 µM [13]: 39.7%
- inhibition at 10 µM [14]: 19.2%
- inhibition at 10 µM [15]: 17.8%
- melting point: 192 to 194 °C
- inhibition at 10 µM ([16]; BT-549 (Breast Cancer), 10 uM single dose, read-out: Growth inhibition %): 10.1%
- inhibition at 10 µM ([16]; CAKI-1 (Renal Cancer), 10 uM single dose, read-out: Growth inhibition %): 26.4%
- inhibition at 10 µM ([16]; CCRF-CEM (Leukemia), 10 uM single dose, read-out: Growth inhibition %): 14%
- inhibition at 10 µM ([16]; HCT-15 (Colon Cancer), 10 uM single dose, read-out: Growth inhibition %): 15.2%
- inhibition at 10 µM ([16]; HCT-116 (Colon Cancer), 10 uM single dose, read-out: Growth inhibition %): 25.4%
- inhibition at 10 µM ([16]; HL-60(TB) (Leukemia), 10 uM single dose, read-out: Growth inhibition %): 20.8%
- inhibition at 10 µM ([16]; HS 578T (Breast Cancer), 10 uM single dose, read-out: Growth inhibition %): 11.3%
- inhibition at 10 µM ([16]; IGROV-1, IGROV1 (Ovarian Cancer), 10 uM single dose, read-out: Growth inhibition %): 23.7%
- inhibition at 10 µM ([16]; M14 (Melanoma), 10 uM single dose, read-out: Growth inhibition %): 12.1%
- inhibition at 10 µM ([16]; MDA-MB-231, read-out: Growth inhibition %): 10.8%
- inhibition at 10 µM ([16]; NCI-H226 (Non-Small Cell Lung Cancer), 10 uM single dose, read-out: Growth inhibition %): 15.4%
- inhibition at 10 µM ([16]; NCI-H522 (Non-Small Cell Lung Cancer), 10 uM single dose, read-out: Growth inhibition %): 17.2%
- inhibition at 10 µM ([16]; OVCAR-3 (Ovarian Cancer), 10 uM single dose, read-out: Growth inhibition %): 18.3%
- inhibition at 10 µM ([16]; OVCAR-8 (Ovarian Cancer), 10 uM single dose, read-out: Growth inhibition %): 15.9%
- inhibition at 10 µM ([16]; PC-3 (Prostate Cancer), 10 uM single dose, read-out: Growth inhibition %): 36.1%
- inhibition at 10 µM ([16]; RPMI-8226 (Leukemia), 10 uM single dose, read-out: Growth inhibition %): 25.4%
- inhibition at 10 µM ([16]; SF-539 (CNS Cancer), 10 uM single dose, read-out: Growth inhibition %): 10.7%
- inhibition at 10 µM ([16]; SK-OV-3 (Ovarian Cancer), 10 uM single dose, read-out: Growth inhibition %): 14.1%
- inhibition at 10 µM ([16]; UACC-62 (Melanoma), 10 uM single dose, read-out: Growth inhibition %): 31.5%

Structure (SMILES): CC(C)c1ccc(Cn2cc(-c3cc(-c4ccc(Br)cc4)nc(N)n3)c3ccccc32)cc1 [IV]
- IC50 [17]: 99 nM
- IC50 [18]: 94 nM
- IC50 [19]: 595 nM

Structure (SMILES): c1nc(Nc2ccc(N3CCOCC3)cc2)cc(Nc2ccc3[nH]ccc3c2)n1 [VIII]
- IC50 ([20]; read-out: IC50 against VEGFR-2): 1200 nM

Structure (SMILES): Cc1ccc(Nc2cc(Oc3ccc4[nH]ccc4c3)ncn2)cc1S(N)(=O)=O [VII]
- IC50 ([20]; read-out: IC50 versus VEGFR-2): 45 nM

Structure (SMILES): C=CC(=O)Nc1cc(Nc2nccc(-c3cn(C)c4ccccc34)n2)c(OC)cc1-n1cccc1CN(C)C [V]
- IC50 [21]: 1.7 nM
- selectivity versus EGFR^L858R/T790M over EGFR^WT kinase [21]: about 22 folds
- IC50 [22]: 37 nM

Structure (SMILES): COc1cc(OC)c(C=C2C(=O)Nc3cc(Cl)ccc32)c(OC)c1 [XIII]
- IC50 [3]: 1660 nM
- IC50 [23]: 549 nM

Structure (SMILES): Cc1cc(-c2cccc(-c3c[nH]c4ccccc34)n2)c2ccccc2n1 [XII]
- IC50 [5]: 5000 nM

Structure (SMILES): COc1ccc2c(/C=C(\C)C(=O)c3cc(OC)c(OC)c([Se]C)c3)c[nH]c2c1 [XI]
- IC50 [24]: 1300 nM

Structure (SMILES): COc1cc(NC(=O)/C(C#N)=C/c2c[nH]c3ccccc23)cc(OC)c1OC [X]
- IC50 [25]: 18000 nM
